Read-outs that look alike come from different tables or passages of the source. Marks after values point to notes of the source that are not given here.
Legend:
[1] = test system: CYP2C19-expressing TK6 cells; assay: TK and HPRT gene mutation assays in CYP2C19-expressing TK6 cells; type: cell-based, human; settings: 4-h treatment, no S9
TA100 = settings: for BMD50L / BMD50U: CES 0.5
TA1535 = settings: for BMD50L / BMD50U: CES 0.5
TA1537 = settings: 0–200 μg/plate
WP2 uvrA (pKM101) = settings: 0–200 μg/plate
tester strains = settings: preliminary study; these concentrations and above
2D HepaRG cells = settings: 24 h; 2D cultures
3D HepaRG spheroids = settings: 24 h; 3D cultures
[2] = test system: TK6 cells transduced with CYP2C19; settings: 24 h without exogenous metabolism
[3] = test system: TK6 cells transduced with CYP2A6; settings: up to 10 μM; 24 h
[4] = test system: TK6 cells transduced with CYP2C8; settings: up to 10 μM; 24 h
[5] = test system: TK6 cells transduced with CYP2D6; settings: up to 10 μM; 24 h
[6] = test system: TK6 cells transduced with CYP2E1; settings: up to 10 μM; 24 h
[7] = test system: TK6 cells transduced with CYP3A4; settings: up to 10 μM; 24 h
HepG2 cells = settings: 24 h without exogenous metabolism, additional 16 h
[8] = test system: CYP2C19-expressing HepG2 cells; settings: 24 h without exogenous metabolism, additional 16 h
[9] = test system: CYP2C19-expressing TK6 cells; settings: 4- and 24-h exposures
[10] = test system: tester strains TA98 or TA100; settings: 1 mg/plate; Aroclor 1254-induced rat liver S9; ref Zhang et al., 1983; cited from earlier work
[11] = test system: tester strains TA1535, TA1537, TA1538, TA92, TA98, and TA100; settings: maximum concentration 1.4 μmol/plate (404 μg/plate); with and without Aroclor 1254-induced rat liver S9; ref Raisfeld-Danse and Chen, 1983; cited from earlier work
primary rat hepatocytes = settings: 10 μM to 100 μM; 20-h exposure; ref Robbiano et al., 1991; cited from earlier work
[12] = test system: primary human hepatocytes; settings: 10 μM to 100 μM; 20-h exposure; ref Robbiano et al., 1991; cited from earlier work
[13] = test system: hepatocytes of Sprague-Dawley rats; settings: single dose of 1000 mg/kg; ref Martelli et al., 1994; cited from earlier work
TK6 cells [14] = assay: In vitro micronucleus assay in TK6 cells
TK6 cells [15] = assay: In vitro MultiFlow DNA damage assay in TK6 cells
TK6 cells [16] = assay: TK and HPRT gene mutation assays in TK6 cells with hamster liver S9; settings: for HPRT gene MF / TK gene MF: 4-h treatment, TK6 cells with 1% hamster liver S9
[17] = 0–200 μg/plate, S9 activation required
[18] = 10% hamster liver S9, preincubation 30 min
[19] = 10% hamster liver S9, preincubation 60 min
[20] = 10% rat liver S9, preincubation 30 min
[21] = 10% rat liver S9, preincubation 60 min
[22] = 30% hamster liver S9, preincubation 30 min
[23] = 30% hamster liver S9, preincubation 60 min
[24] = 30% rat liver S9, preincubation 30 min
[25] = 30% rat liver S9, preincubation 60 min
[26] = without S9, preincubation 30 min
[27] = without S9, preincubation 60 min

Structure (SMILES): CC(C)N(CC(O)COc1cccc2ccccc12)N=O (stereo not shown) [NNP, N-nitroso propranolol]
- HPRT gene MF ([1]; 0.0625 μM): 4.5^c × 10^−6
- TK gene MF ([1]; 0.0625 μM): 13.2 × 10^−6
- HPRT gene MF ([1]; 0.125 μM): 6.5^c × 10^−6
- TK gene MF ([1]; 0.125 μM): 18.6^c × 10^−6
- HPRT gene MF ([1]; 0.5 μM): 23.0^c × 10^−6
- TK gene MF ([1]; 0.5 μM): 28.5^c × 10^−6
- Mutagenic response in the Ames test (overall) (TA100; [17]): positive mutagenic responses
- BMD50L (TA100; [18]): 5.9 μg/plate
- BMD50U (TA100; [18]): 21.1 μg/plate
- BMD50L (TA100; [19]): 14.1 μg/plate
- BMD50U (TA100; [19]): 34.4 μg/plate
- BMD50L (TA100; [20]): Negative
- BMD50L (TA100; [21]): Negative
- BMD50L (TA100; [22]): 7.3 μg/plate
- BMD50U (TA100; [22]): 19.9 μg/plate
- BMD50L (TA100; [23]): 24.7 μg/plate
- BMD50U (TA100; [23]): 62.2 μg/plate
- BMD50L (TA100; [24]): Negative
- BMD50L (TA100; [25]): Negative
- BMD50L (TA100; [26]): Negative
- BMD50L (TA100; [27]): Negative
- Mutagenic response in the Ames test (overall) (TA1535; [17]): positive mutagenic responses
- BMD50L (TA1535; [18]): 0.9 μg/plate
- BMD50U (TA1535; [18]): 3.4 μg/plate
- BMD50L (TA1535; [19]): 2.1 μg/plate
- BMD50U (TA1535; [19]): 6.5 μg/plate
- BMD50L (TA1535; [20]): 36.1 μg/plate
- BMD50U (TA1535; [20]): 108.0 μg/plate
- BMD50L (TA1535; [21]): Negative
- BMD50L (TA1535; [22]): 2.3 μg/plate
- BMD50U (TA1535; [22]): 7.7 μg/plate
- BMD50L (TA1535; [23]): 2.5 μg/plate
- BMD50U (TA1535; [23]): 7.1 μg/plate
- BMD50L (TA1535; [24]): Negative
- BMD50L (TA1535; [25]): Negative
- BMD50L (TA1535; [26]): Negative
- BMD50L (TA1535; [27]): Negative
- Mutagenic response in the Ames test (overall) (TA1537): negative
- Mutagenic response in the Ames test (overall) (WP2 uvrA (pKM101)): negative
- Concentrations with considerable toxicity in the Ames test (tester strains): 100–500 μg/plate
- Lowest concentration that induced positive responses (Comet) (2D HepaRG cells): 50 µM
- Lowest concentration that induced positive responses (Comet) (3D HepaRG spheroids): 25 µM
- Lowest concentration causing a statistically significant increase in %MN [2]: 0.0625 µM
- Effect on %MN and cytotoxicity [3]: no effect
- Effect on %MN and cytotoxicity [4]: no effect
- Effect on %MN and cytotoxicity [5]: no effect
- Effect on %MN and cytotoxicity [6]: no effect
- Effect on %MN and cytotoxicity [7]: no effect
- Cytotoxicity or MN formation (HepG2 cells): did not cause any cytotoxicity or MN formation
- %MN [8]: concentration-dependent increase
- Lowest observed adverse effect level (LOAEL) for %MN [8]: 2 µM
- Nuclear P53 [9]: only caused increases in nuclear P53 after 24 h
- Mutations in the Ames test [10]: did not induce mutations
- Mutagenicity in the Ames test [11]: negative
- DNA fragmentation and unscheduled DNA synthesis (UDS) (primary rat hepatocytes): concentration-dependent increase
- DNA fragmentation and unscheduled DNA synthesis (UDS) [12]: concentration-dependent increase
- Micronucleus (MN) formation in hepatocytes [13]: induced micronucleus (MN) formation
- %MN frequency with hamster liver S9 (TK6 cells [14]; 4-h (2% S9) and 24-h (0.4% S9) treatments): concentration-dependent increase
- Cytotoxicity after metabolic activation by hamster liver S9 (TK6 cells [14]; 4-h and 24-h treatments): displayed cytotoxicity
- Effect on %MN and cytotoxicity (TK6 cells [14]; non-CYP-transduced TK6 cells, up to 10 μM, 24 h): no effect
- MN formation over vehicle controls (TK6 cells [14]; without exogenous metabolism, up to 100 μM, 24 h): did not result in any increase in MN formation
- γH2A.X (TK6 cells [15]; 4-h treatment with 2% hamster S9): concentration-dependent increase
- γH2A.X (TK6 cells [15]; 24-h treatment with 0.4% hamster S9, 10 μM (highest concentration, cytotoxic)): level decreased
- γH2A.X (TK6 cells [15]; 24-h treatment with 0.4% hamster S9, 2.5 and 5.0 μM): induced increases
- Phosphorylation of histone H3 (aneugen marker) (TK6 cells [15]; data not shown): did not increase
- γH2A.X fluorescence (TK6 cells [15]; without S9): did not induce any increase
- γH2A.X compared to the vehicle control (TK6 cells [15]; without S9, 100 μM): statistically significant decrease
- HPRT gene MF (TK6 cells [16]; 50 μM): 4.2^c × 10^−6
- TK gene MF (TK6 cells [16]; 50 μM): 15.5^c × 10^−6
- HPRT gene MF (TK6 cells [16]; 100 μM): 7.0^c × 10^−6
- TK gene MF (TK6 cells [16]; 100 μM): 21.8^c × 10^−6
- HPRT gene MF (TK6 cells [16]; 200 μM): 3.2^c × 10^−6
- TK gene MF (TK6 cells [16]; 200 μM): 17.8^c × 10^−6
- HPRT gene MF (TK6 cells [16]; 300 μM): 2.6^c × 10^−6
- TK gene MF (TK6 cells [16]; 300 μM): 16.5^c × 10^−6
- Concentrations producing overt cytotoxicity (TK6 cells [16]; preliminary concentration range-finding study, 1% hamster liver S9, 4 h): ≥ 400 µM

From publication PMC11393638 (Regulatory toxicology and pharmacology : RTP, 2023)
